Measured values: patent US20070213303A1, “Methods for reducing platelet activation and for the treatment of thrombotic events” (priority 2005, published 2007)

How the values were obtained:
Assay type in all cases: cell-based, human
PAR-1 (WEDE15) = assay: Flow cytometry, PAR-1 thrombin receptor expression (WEDE15)
Method: (§1) Venous blood (8 ml) is collected in a plastic tube containing 2 ml of acid-citrate-dextrose (ACD) (7.3 g citric acid, 22.0 g sodium citrate.2H2O and 24.5 glucose in 1000 ml distilled water) and mixed well. The blood-ACD mixture is centrifuged at 1000 r.p.m. for 10 minutes at room temperature. The upper ⅔ of the platelet-rich plasma (PRP) is then collected and adjusted to pH=6.5 by adding ACD. The PRP is then centrifuged at 3000 r.p.m. for 10 minutes. The supernatant is removed and the platelet pellet is gently resuspended in 4 cc of the washing buffer (10 mM Tris/HCl, 0.15 M NaCl, 20 mM EDTA, pH=7.4). Platelets are washed in the washing buffer, and in TBS (10 mM Tris, 0.15 M NaCl, pH=7.4). All cells are then divided into the appropriate number of tubes. By way of example, if 9 different surface markers are evaluated, as described herein, then the cells should be divided into ten tubes, such that nine tubes containing washed platelets are incubated with 5 μl fluorescein isothiocyanate (FITC)-conjugated antibodies in the dark at +4° C. for 30 minutes, and one tube remains unstained and serves as a negative control. Surface antigen expression is measured with monoclonal murine anti-human antibodies, such as CD9 (p24); CD41a (IIb/IIIa, aIIbb3); CD42b (Ib); CD61(IIIa) (DAKO Corporation, Carpinteria, Calif.); CD49b (VLA-2, or a2b1); CD62p (P-selectin); CD31 (PECAM-1); CD 41b (IIb); and CD51/CD61 (vitronectin receptor, avb3) (PharMingen, San Diego Calif.), as the expression of these antigens on the cells is associated with platelet activation. After incubation, the cells are washed with TBS and resuspended in 0.25 ml of 1% paraformaldehyde. Samples are stored in the refrigerator at +4° C., and analyzed on a Becton Dickinson FACScan flow cytometer with laser output of 15 mw, excitation at 488 nm, and emission detection at 530±30 nm. The data can be collected and stored in list mode, and then analyzed using CELLQuest® software. FACS procedures are described in detail in, e.g., Gurbel, P. A. et al., J Amer Coll Cardiol 31: 1466-1473 (1998); Serebruany, V. L. et al., Am Heart J 136: 398-405 (1998); Gurbel, P. A. et al., Coron Artery Dis 9: 451-456 (1998) and Serebruany, V. L. et al., Arterioscl Thromb Vasc Biol 19: 153-158 (1999).
(§2) Four cc of blood is collected in a tube, containing 2 cc of acid-citrate-dextrose (ACD; 7.3 g citric acid, 22.0 g sodium citrate.2H2O and 24.5 glucose in 1000 ml distilled water) and mixed well. The buffer, TBS (10 mM Tris, 0.15 M NaCl, pH 7.4) and the following fluorescein isothiocyanate (FITC) conjugated monoclonal antibodies (PharMingen, San Diego, Calif., USA, and DAKO, Calif., USA) are removed from a refrigerator and allowed to warm at room temperature (RT) prior to their use. The non-limiting examples of antibodies that can be used include CD41 (IIb/IIIa), CD31 (PECAM-1), CD62p (P-selectin), and CD51/61 (Vitronectin receptor). For each subject, six amber tubes (1.25 ml) are one Eppendorf tube (1.5 ml) are obtained and marked appropriately 450 μl of TBS buffer is pipetted to the labeled Eppendorf tube. A patient's whole blood tube is inverted gently twice to mix, and 50 μl of whole blood is pipetted to the appropriately labeled Eppendorf tube. The Eppendorf tube is capped and the diluted whole blood is mixed by inverting the Eppendorf tube gently two times, followed by pipetting 50 μl of diluted whole blood to each amber tube. […] The samples are analyzed on a Becton Dickinson FACScan flow cytometer. […]

platelets = assay: Conventional platelet aggregation induced by collagen
Method: Trisodium citrate (3.8%) and whole blood is immediately mixed in a 1:9 ratio, and then centrifuged at 1200 g for 2.5 minutes, to obtain platelet-rich plasma (PRP), which is kept at room temperature for use within 1 hour for platelet aggregation studies. Platelet count is determined in each PRP sample with a Coulter Counter ZM (Coulter Co., Hialeah, Fla.). Platelet numbers are adjusted to 3.50×10^8/ml for aggregation with homologous platelet-poor plasma. PRP and whole blood aggregation tests are performed simultaneously. Whole blood is diluted 1:1 with the 0.5 ml PBS, and then swirled gently to mix. The cuvette with the stirring bar is placed in the incubation well and allowed to warm to 37° C. for 5 minutes. Then the samples are transferred to the assay well. An electrode is placed in the sample cuvette. […] All agonists are obtained, e.g., from Chronolog Corporation (Hawertown, Pa.). Platelet aggregation studies are performed using a Chrono-Log Whole Blood Lumi-Aggregometer (model 560-Ca). Platelet aggregability is expressed as the percentage of light transmittance change from baseline using platelet-poor plasma as a reference at the end of recording time for plasma samples, or as a change in electrical impedance for whole blood samples. Aggregation curves are recorded for 4 minutes and analyzed according to internationally established standards using Aggrolink® software.
The effect of doses (15 μg/ml to 90 μg/ml) of Compound A on in vitro platelet characteristics in subjects with multiple factors for vascular disease was tested.
The in vitro effects of pre-incubation with escalating concentrations of Compound A on platelet aggregation, and expression of major surface receptors by flow cytometry, were assessed in 20 aspirin naïve volunteers with multiple risk factors for vascular disease.

PECAM-1 (CD31) = assay: Flow cytometry, platelet surface expression of CD31
Method: as §1, §2

PAC-1 = assay: Flow cytometry, activity with PAC-1 antibody
Method: as §1, §2

thrombospondin (CD36) = assay: Flow cytometry, platelet surface expression of thrombospondin
Method: as §1, §2

CC(C)(Sc1cc(C(C)(C)C)c(O)c(C(C)(C)C)c1)Sc1cc(C(C)(C)C)c(OC(=O)CCC(=O)O)c(C(C)(C)C)c1 [Compound A]
Flow cytometry PAR-1 (WEDE15) (PAR-1 (WEDE15); preincubation 15 μg/mL): 40.6 ± 5.5
Flow cytometry PAR-1 (WEDE15) (PAR-1 (WEDE15); preincubation 30 μg/mL): 36.1 ± 4.7
Flow cytometry PAR-1 (WEDE15) (PAR-1 (WEDE15); preincubation 60 μg/mL): 37.7 ± 5.5
Flow cytometry PAR-1 (WEDE15) (PAR-1 (WEDE15); preincubation 90 μg/mL): 34.3 ± 5.2
PAR-1 thrombin receptor expression, active epitope (PAR-1 (WEDE15); pretreated samples): reduced
collagen-induced aggregation (platelets): little or no effect
Conventional platelet aggregation, Collagen 5 μg/ml (platelets; preincubation 15 μg/mL): 64.95 ± 5.1%
Conventional platelet aggregation, Collagen 5 μg/ml (platelets; preincubation 30 μg/mL): 65.6 ± 8.7%
Conventional platelet aggregation, Collagen 5 μg/ml (platelets; preincubation 60 μg/mL): 66.6 ± 6.8%
Conventional platelet aggregation, Collagen 5 μg/ml (platelets; preincubation 90 μg/mL): 65.5 ± 6.0%
Flow cytometry CD31 (PECAM-1 (CD31); preincubation 15 μg/mL): 58.4 ± 5.7
Flow cytometry CD31 (PECAM-1 (CD31); preincubation 30 μg/mL): 57.8 ± 6.5
Flow cytometry CD31 (PECAM-1 (CD31); preincubation 60 μg/mL): 55.8 ± 7.1
Flow cytometry CD31 (PECAM-1 (CD31); preincubation 90 μg/mL): 50.9 ± 8.9
Surface platelet expression of PECAM-1 (CD31) (PECAM-1 (CD31); pretreated samples): decreased
Flow cytometry PAC-1 (PAC-1; preincubation 15 μg/mL): 11.4 ± 1.1
Flow cytometry PAC-1 (PAC-1; preincubation 30 μg/mL): 11.2 ± 1.4
Flow cytometry PAC-1 (PAC-1; preincubation 60 μg/mL): 10.9 ± 2.2
Flow cytometry PAC-1 (PAC-1; preincubation 90 μg/mL): 10.3 ± 1.8
GP IIb/IIIa activity with PAC-1 antibody (PAC-1; pretreated samples): decreased
thrombospondin (CD36) (thrombospondin (CD36)): little or no effect
Flow cytometry Thrombospondin (thrombospondin (CD36); preincubation 15 μg/mL): 10.1 ± 1.9
Flow cytometry Thrombospondin (thrombospondin (CD36); preincubation 30 μg/mL): 11.0 ± 2.3
Flow cytometry Thrombospondin (thrombospondin (CD36); preincubation 60 μg/mL): 10.3 ± 1.9
Flow cytometry Thrombospondin (thrombospondin (CD36); preincubation 90 μg/mL): 9.6 ± 2.0
